Reference: PMC10847513, “Plastid ancestors lacked a complete Entner-Doudoroff pathway, limiting plants to glycolysis and the pentose phosphate pathway” (Nature Communications, 2024)
Each block holds one molecule with its values, some of them ahead of it.

How the values were obtained:
E. coli EDD = biological target: T1, E. coli EDD (Escherichia coli, UniProt P0ADF6); assay: LCMS/MS product assay; assay type: biochemical; details: pH 8.0, 30 °C, 100 mM Tris-HCl, 10 mM MgCl2, 1 mM DTT; 4.4 mM substrate; dehydration to KDPG
T1 construct: full length, His-tagged (pET28), E. coli BL21(DE3), Ni-NTA
T1 sequence (P0ADF6 1-603): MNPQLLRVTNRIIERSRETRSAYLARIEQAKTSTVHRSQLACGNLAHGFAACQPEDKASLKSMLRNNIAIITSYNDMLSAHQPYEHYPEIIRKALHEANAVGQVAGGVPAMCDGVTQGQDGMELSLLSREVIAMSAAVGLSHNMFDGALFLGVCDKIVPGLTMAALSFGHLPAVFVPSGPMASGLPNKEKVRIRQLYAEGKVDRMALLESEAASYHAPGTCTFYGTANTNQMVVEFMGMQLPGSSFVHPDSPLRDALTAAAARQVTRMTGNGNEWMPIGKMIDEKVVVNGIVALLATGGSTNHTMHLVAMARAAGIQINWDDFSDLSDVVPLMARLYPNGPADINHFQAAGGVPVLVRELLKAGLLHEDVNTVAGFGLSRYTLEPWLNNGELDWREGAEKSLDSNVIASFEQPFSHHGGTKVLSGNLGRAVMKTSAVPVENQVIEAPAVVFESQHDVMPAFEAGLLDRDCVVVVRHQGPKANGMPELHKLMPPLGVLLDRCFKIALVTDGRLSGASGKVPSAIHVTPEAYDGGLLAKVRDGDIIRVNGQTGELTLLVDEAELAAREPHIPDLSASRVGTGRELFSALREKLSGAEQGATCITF

[1] = biological target: T2, GmEDA (soybean KDPG aldolase, pseudomature) (Glycine max, UniProt K7LFS1); assay: LCMS/MS product assay, Lineweaver-Burk; assay type: biochemical; details: pH 8.0, 30 °C, 50 mM KH2PO4, 100 mM NaCl, 1 mM DTT; substrate 0.25-1 mM; aldol cleavage
T2 construct: gene LOC100800025
T2 sequence (K7LFS1 1-256): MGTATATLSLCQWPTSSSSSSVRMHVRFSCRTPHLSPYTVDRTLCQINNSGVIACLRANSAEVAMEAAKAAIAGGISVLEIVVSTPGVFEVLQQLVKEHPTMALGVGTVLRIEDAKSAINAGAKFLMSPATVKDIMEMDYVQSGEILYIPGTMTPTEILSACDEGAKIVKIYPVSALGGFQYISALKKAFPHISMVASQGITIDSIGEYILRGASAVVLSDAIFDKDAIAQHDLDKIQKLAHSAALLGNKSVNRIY

E. coli DHAD = biological target: T3, E. coli DHAD (Escherichia coli, UniProt P05791); assay: LCMS/MS product assay; assay type: biochemical; details: pH 8.0, 30 °C, 100 mM Tris-HCl, 10 mM MgCl2, 1 mM DTT; 4.4 mM substrate; dehydration to 2-ketoisovalerate
T3 construct: gene ilvD; full length, His-tagged (pET28), E. coli BL21(DE3), Ni-NTA
T3 sequence (P05791 2-616): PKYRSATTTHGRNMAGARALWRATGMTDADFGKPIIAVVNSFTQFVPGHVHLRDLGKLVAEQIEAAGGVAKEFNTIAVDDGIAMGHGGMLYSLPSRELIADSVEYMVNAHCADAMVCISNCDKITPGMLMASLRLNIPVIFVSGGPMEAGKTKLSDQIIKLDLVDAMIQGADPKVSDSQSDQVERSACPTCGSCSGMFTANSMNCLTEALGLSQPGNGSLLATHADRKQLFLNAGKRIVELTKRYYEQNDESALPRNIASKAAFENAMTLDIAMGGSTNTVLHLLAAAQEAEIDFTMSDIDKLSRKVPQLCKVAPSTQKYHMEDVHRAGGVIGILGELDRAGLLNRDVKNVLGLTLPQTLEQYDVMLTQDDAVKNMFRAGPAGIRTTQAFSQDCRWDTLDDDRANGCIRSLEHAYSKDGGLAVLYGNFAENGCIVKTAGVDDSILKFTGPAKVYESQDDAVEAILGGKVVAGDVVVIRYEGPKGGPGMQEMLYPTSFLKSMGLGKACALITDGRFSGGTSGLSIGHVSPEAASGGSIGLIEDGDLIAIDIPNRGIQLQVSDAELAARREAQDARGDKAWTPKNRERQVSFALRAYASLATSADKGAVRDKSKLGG

E. coli EDA = E. coli EDA (Escherichia coli, UniProt P0A955); details: pH 8.0, 30 °C, 50 mM KH2PO4, 100 mM NaCl, 1 mM DTT; aldol cleavage to GAP and pyruvate
Chain of E. coli EDA (P0A955 whole entry): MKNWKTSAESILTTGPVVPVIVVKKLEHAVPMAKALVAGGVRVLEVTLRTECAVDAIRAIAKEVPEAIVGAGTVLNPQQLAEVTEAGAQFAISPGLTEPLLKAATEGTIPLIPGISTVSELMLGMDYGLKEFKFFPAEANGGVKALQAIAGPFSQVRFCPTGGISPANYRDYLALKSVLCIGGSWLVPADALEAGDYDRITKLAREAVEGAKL

Structure (SMILES): O=C(O)[C@H](O)[C@@H](O)[C@H](O)[C@H](O)COP(=O)(O)O [6-PG]
- LCMS/MS product assay (E. coli EDD): E. coli EDD catalyzed the expected dehydration of 6-PG to KDPG

- Km [1]: 1260 µM
Structure (SMILES): O=P(O)(O)OC[C@H]1OC(O)(COP(=O)(O)O)[C@@H](O)[C@@H]1O (stereo partly drawn) [D-fructose-1,6-bisphosphate]

Structure (SMILES): CC(C)(O)[C@@H](O)C(=O)O [DIV]
- LCMS/MS product assay (E. coli DHAD): soybean and E. coli DHAD both converted DIV to its corresponding dehydration product

- Km [1]: 310 µM
Structure (SMILES): O=C(O)C(=O)C[C@H](O)[C@H](O)COP(=O)(O)O [KDPG]
- LCMS/MS and GC-MS product assay (E. coli EDA): enzymatic assay of soybean and E. coli EDA when KDPG was supplied as substrate
